A word on the tissue uptake: it is the share of the injected amount in each gram of the tissue.

Experimental findings from patent US20100015058A1, “RADIOLABELED BBN-RGD HETERODIMERS FOR CANCER TARGETING” (STANFORD UNIVERSITY, priority 2008, published 2010) are described below.

Data set [1] can be described thus: in vivo. The arrangement: species or system mice. The note with it: male, athymic nude, mouse, 0.74 MBq, total radioactivity. How it is done: At 0.5 h and 1 h after injection of the tracer, the tumor-bearing mice were killed and dissected. Blood, tumor, major organs, and tissues were collected and wet-weighed. The radioactivity in the tissue was measured by y counter (Packard). The results are presented as percentage injected dose per gram of tissue (% ID/g). For each mouse, the radioactivity of the tissue samples was calibrated against a known aliquot of the injectate and normalized to a body mass of 20 g. Values were expressed as mean±SD for groups of four animals (n=4 per group).

For a further data set, the system named is T47D tumor. Briefly: MicroPET of T47D tumor-bearing mice. The format is in vivo. As to conditions: orthotopic model.
The next data set concerns PC-3 tumor cells. The format is cell-based, human. How it is done: In the cell efflux experiment, PC-3 cells were seeded into 12-well plates at a density of 5×10^5 cells per well for overnight incubation. Cells were rinsed 3 times with PBS and then the appropriate ^18F-labeled peptide tracer was added. The cells were incubated at 37° C. for 2 hr, washed with PBS, and then reincubated with serum-free medium. The cells were washed at different time points (0, 15, 30, 60, 120, 180 min) with PBS and lysed with NaOH-SDS (0.2 M NaOH, 1% SDS). The cell lysate was collected in measurement tubes for counting. Efflux values at different time points were calculated by subtracting retention from 0-min retention, and normalized by dividing the total counts at 0 min.
The cell uptake studies were performed as we have previously described with some modifications (Chen et al., Mol Imaging Biol. (2004) […]; Cai et al., (2006) J. Nuc. Med. 47: 1172-1180, incorporated herein by reference in their entireties). Briefly, PC-3 cells were seeded into 12-well plates at a density of 5×10^5 cells per well and incubated (about 18 kBq/well) with ^68Ga-labeled tracers at 37° C. for 15, 30, 60, and 120 min. Tumor cells were then washed three times with chilled PBS and harvested by trypsinization with 0.25% trypsin/0.02% EDTA (Invitrogen). The cell suspensions were collected and measured in a y counter (Packard, Meriden, Conn.). The cell uptake was expressed as the percent added dose (% AD) after decay correction. Experiments were performed twice with triplicate wells. For efflux studies, ^68Ga-labeled tracers (about 18 kBq/well) were first incubated with PC-3 cells in 12-well plates for 1 h at 37° C. to allow internalization. Then cells were washed twice with PBS, and incubated with cell culture medium for 15, 30, and 60 min. After washing three times with PBS, cells were harvested by trypsinization with 0.25% trypsin/0.02% EDTA. The cell suspensions were collected and measured in a γ counter. Experiments were performed twice with triplicate wells. Data are expressed as percent added dose after decay correction.

The next data set deals with PC-3 tumor. Put plainly: Small-animal PET of PC-3 tumor-bearing mice.
For a further data set, the system named is T47D tumor cells. Put plainly: Cell uptake assay on T47D tumor cells. The format is cell-based, human. As to conditions: 120 min, 37° C., n=3. How it is done:
The cells suspensions were collected and measured in a y counter (Packard, Meriden, Conn.). The cell uptake was expressed as the percent added dose (% AD) after decay correction. Experiments were performed twice with triplicate wells.

Data set [2] can be described thus: in vivo. Also on record: species or system mice. The note with it: female, BALB/c, mouse, iv, 3.7 MBq, total radioactivity. How it is done:
The 4T1 murine breast cancer cell line was purchased from American Type Culture Collection and grown in RMPI 1640 medium (Invitrogen Corp.) supplemented with 10% (v/v) fetal bovine serum (Invitrogen) at 37° C. with 5% CO2. The 4T1 tumor model was generated by subcutaneous injection of 5×10^6 tumor cells into the left front flank of female normal BALB/c mice (Harlan).
Five-minute static PET images were then acquired at 2 h after injection (n=3/group).

Structures are written as SMILES. Where only a bound is given, the exact number is not on record here.

Regarding `CSCC[C@H](NC(=O)[C@H](CC(C)C)NC(=O)[C@H](Cc1c[nH]cn1)NC(=O)CNC(=O)[C@@H](NC(=O)[C@H](C)NC(=O)[C@H](Cc1c[nH]c2ccccc12)NC(=O)[C@H](CCC(N)=O)NC(=O)CCCCCNC(=O)CC[C@H](NC(=O)COCCOCCOCCNC(=O)c1ccc([18F])cc1)C(=O)NCCCC[C@@H]1NC(=O)[C@@H](Cc2ccc(O)cc2)NC(=O)[C@H](CC(=O)O)NC(=O)CNC(=O)[C@H](CCCNC(=N)N)NC1=O)C(C)C)C(N)=O` [^18F-FB-PEG3-RGD-BBN], the tissue uptake at 1 h in “in vivo [1]” (kidney uptake, biodistribution) was 4.87 ± 0.67 %ID/g; in “in vivo [1]” (tumor uptake, biodistribution), 4 ± 0.08 %ID/g; in the data set “in vivo [1]” (uptake values in the blood, heart, liver, spleen, bone, and muscle) it was < 2 %ID/g. The values for the T47D tumor uptake with T47D tumor (0.5 h), in the data set with T47D tumor (1 h) and in the data set with T47D tumor (2 h) were 2.96±0.53 % ID/g, 1.81±0.34 % ID/g and 0.91±0.12 % ID/g, respectively. In addition, in the data set on PC-3 tumor cells, the efflux ratio entry is reported as “about 40%”. Further, the “decrease of tumor uptake by BBN blocking” value in the data set with PC-3 tumor (1 h, Aca-BBN(7-14) 15 mg/kg, n=3) is given as 65%. For the same compound, the “decrease of tumor uptake by RGD and BBN blocking” value in the data set with PC-3 tumor (1 h, RGD 10 mg/kg and BBN 15 mg/kg, n=3) worked out at 90%. Further, the “decrease of tumor uptake by RGD blocking” value in the data set on PC-3 tumor (1 h, c(RGDyK) 10 mg/kg, n=3) is given as 50%. In addition, the “blood % ID/g at 30 min relative to that at 2 min p.i.” value with PC-3 tumor (mouse, in vivo) came to 35%. For the same compound, the “time of peak kidney uptake” value with PC-3 tumor (mouse, in vivo) was “about 10 min”. For the same compound, the “T47D cell uptake value” in the data set with T47D tumor cells worked out at 4.25±0.13 % AD.

With `CSCC[C@H](NC(=O)[C@H](CC(C)C)NC(=O)[C@H](Cc1c[nH]cn1)NC(=O)CNC(=O)[C@@H](NC(=O)[C@H](C)NC(=O)[C@H](Cc1c[nH]c2ccccc12)NC(=O)[C@H](CCC(N)=O)NC(=O)CCCCCNC(=O)CC[C@H](NC(=S)Nc1ccc(C[C@H]2CN(CC(=O)O)CCN(CC(=O)O)CCN2CC(=O)O)cc1)C(=O)NCCCC[C@@H]1NC(=O)[C@@H](Cc2ccc(O)cc2)NC(=O)[C@H](CC(=O)O)NC(=O)CNC(=O)[C@H](CCCNC(=N)N)NC1=O)C(C)C)C(N)=O` [^64Cu-NOTA-RGD-BBN, metal not drawn], the T47D tumor uptake in the data set on T47D tumor (0.5 h) is recorded as 3.73 ± 0.81 % ID/g; with T47D tumor (1 h), 2.33 ± 0.59 % ID/g; in the data set on T47D tumor (2 h), 1.97 ± 0.32 % ID/g. Further, the tissue uptake at 2 h in the data set “in vivo [2]” was 1.88 ± 0.28 %ID/g. Further, in the data set on T47D tumor cells, the “T47D cell uptake value” came out at 5.30±0.53 % AD.

Take `CSCC[C@H](NC(=O)[C@H](CC(C)C)NC(=O)[C@H](Cc1c[nH]cn1)NC(=O)CNC(=O)[C@@H](NC(=O)[C@H](C)NC(=O)[C@H](Cc1c[nH]c2ccccc12)NC(=O)[C@H](CCC(N)=O)NC(=O)CCCCCNC(=O)CC[C@H](NC(=S)Nc1ccc(C[C@H]2CN(CC(=O)O)CCN(CC(=O)O)CCN2CC(=O)O)cc1)C(=O)NCCCC[C@@H]1NC(=O)[C@@H](Cc2ccc(O)cc2)NC(=O)[C@H](CC(=O)O)NC(=O)CNC(=O)[C@H](CCCNC(=N)N)NC1=O)C(C)C)C(N)=O` [^68Ga-NOTA-RGD-BBN, metal not drawn]: in “in vivo [1]” (kidney uptake, biodistribution), the tissue uptake at 0.5 h turned out to be 8.76 ± 1.83 %ID/g and the tissue uptake at 1 h was 5.58 ± 0.75 %ID/g. In addition, in “in vivo [1]” (tumor uptake, biodistribution), the tissue uptake at 0.5 h is 5.43 ± 0.54 %ID/g and the tissue uptake at 1 h turned out to be 4.76 ± 0.46 %ID/g. Also, the “cell-associated tracer (cell retention)” value in the data set on PC-3 tumor cells (PC-3 cells, 60 min efflux, FIG. 14D) is 1.14±0.50 % AD. Besides, in the data set on PC-3 tumor (mouse, in vivo), the “time of peak kidney uptake” value is listed as “about 10 min”. In the data set on T47D tumor cells, the “T47D cell uptake value” is given as 2.42±0.23 % AD.
